Where two headings read alike, the source gives them in different places.
Experiments:
hGLP-1R = hGLP-1R (Homo sapiens, UniProt P43220); experiment: Functional cAMP formation (HTRF) in HEK-293 clonal cells expressing hGLP-1R, 0.1% bovine casein, without or with 1.0% human serum albumin; assay type: cell-based; design: expressed in transfected cells; settings: 37° C.; for Emax: HEK293, cAMP, percent of maximal response to GLP-1(7-36)NH2, read-out: hGLP-1R Emax, % ± SEM; for EC50: cAMP, read-out: hGLP-1R EC50, nM (SEM, n)
Procedure, shortened: (§1)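 Cells were stimulated with peptide for 30 min at 37° C, then intracellular cAMP was measured by competitive HTRF (665/620 nm ratio) and converted to nM using a cAMP standard curve. Relative EC50 and Emax came from four-parameter logistic fits of percent maximal response against peptide concentration.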

[1] = biological target: T1, human GIP receptor (hGIPR) (Homo sapiens, UniProt P48546); experiment: [125I]-GIP binding, SPA with membranes of CHO cells expressing hGIPR; settings: human GIPR; geometric mean (SEM, n); read-out: Binding Affinity Ki, nM (SEM, n) hGIPR
T1 construct: expressed in transfected cells; crude membranes
T1 sequence (P48546 22-466): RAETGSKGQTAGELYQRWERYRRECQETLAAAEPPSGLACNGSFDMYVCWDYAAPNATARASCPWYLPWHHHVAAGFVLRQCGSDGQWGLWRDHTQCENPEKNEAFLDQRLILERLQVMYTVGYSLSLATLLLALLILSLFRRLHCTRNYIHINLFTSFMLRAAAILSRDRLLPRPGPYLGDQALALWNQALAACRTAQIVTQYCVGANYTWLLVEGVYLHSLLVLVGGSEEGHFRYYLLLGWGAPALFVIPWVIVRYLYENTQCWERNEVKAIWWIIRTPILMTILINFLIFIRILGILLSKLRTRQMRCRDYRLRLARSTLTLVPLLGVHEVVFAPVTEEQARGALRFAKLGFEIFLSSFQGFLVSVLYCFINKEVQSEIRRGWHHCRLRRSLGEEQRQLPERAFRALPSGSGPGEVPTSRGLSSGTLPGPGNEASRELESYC

hGIPR = biological target: T2, hGIPR (Homo sapiens, UniProt P48546); experiment: Functional cAMP formation (HTRF) in HEK-293 clonal cells expressing hGIPR, 0.1% bovine casein, without or with 1.0% human serum albumin; assay type: cell-based; settings: 37° C.; for Emax: HEK293, cAMP, percent of maximal response to GIP(1-42)NH2, read-out: hGIPR Emax, % ± SEM; for EC50: cAMP, read-out: hGIPR EC50, nM (SEM, n)
T2 construct: expressed in transfected cells
T2 sequence (P48546 22-466): T1 sequence (P48546 22-466)
Procedure, shortened: as §1

hGCGR = biological target: T3, hGCGR (Homo sapiens, UniProt P47871); experiment: Functional cAMP formation (HTRF) in HEK-293 clonal cells expressing hGCGR, 0.1% bovine casein, without or with 1.0% human serum albumin; assay type: cell-based; settings: cAMP, 37° C., read-out: hGCGR EC50, nM (SEM, n)
T3 construct: expressed in transfected cells
Procedure, shortened: as §1

[2] = biological target: T4, human GLP-1 receptor (hGLP-1R) (Homo sapiens, UniProt P43220); experiment: [125I]-GLP-1 binding, SPA with membranes of HEK293 cells expressing hGLP-1R; settings: human GLP-1R; geometric mean (SEM, n); read-out: Binding Affinity Ki, nM (SEM, n) hGLP-1R
T4 construct: expressed in transfected cells; crude membranes

[3] = 0.1% bovine casein, arithmetic mean
[4] = 0.1% bovine casein (no human serum albumin), geometric mean
[5] = 0.1% bovine casein and 1.0% human serum albumin
[6] = 0.1% bovine casein and 1.0% human serum albumin, geometric mean (SEM, n)

T3 sequence (P47871 26-477): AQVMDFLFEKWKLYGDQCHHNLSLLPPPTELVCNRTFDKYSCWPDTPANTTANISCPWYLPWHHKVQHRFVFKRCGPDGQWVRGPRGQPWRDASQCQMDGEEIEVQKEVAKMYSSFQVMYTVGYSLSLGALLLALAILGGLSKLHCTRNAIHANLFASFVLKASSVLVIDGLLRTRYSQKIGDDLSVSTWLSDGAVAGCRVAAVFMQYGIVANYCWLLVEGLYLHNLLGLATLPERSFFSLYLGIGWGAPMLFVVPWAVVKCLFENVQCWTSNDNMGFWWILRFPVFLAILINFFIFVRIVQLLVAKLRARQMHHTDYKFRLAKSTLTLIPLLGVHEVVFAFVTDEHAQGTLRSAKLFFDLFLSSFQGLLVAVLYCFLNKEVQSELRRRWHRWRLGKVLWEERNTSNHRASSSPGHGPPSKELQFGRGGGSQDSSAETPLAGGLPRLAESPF
hGLP-1R, sequence (P43220 24-463): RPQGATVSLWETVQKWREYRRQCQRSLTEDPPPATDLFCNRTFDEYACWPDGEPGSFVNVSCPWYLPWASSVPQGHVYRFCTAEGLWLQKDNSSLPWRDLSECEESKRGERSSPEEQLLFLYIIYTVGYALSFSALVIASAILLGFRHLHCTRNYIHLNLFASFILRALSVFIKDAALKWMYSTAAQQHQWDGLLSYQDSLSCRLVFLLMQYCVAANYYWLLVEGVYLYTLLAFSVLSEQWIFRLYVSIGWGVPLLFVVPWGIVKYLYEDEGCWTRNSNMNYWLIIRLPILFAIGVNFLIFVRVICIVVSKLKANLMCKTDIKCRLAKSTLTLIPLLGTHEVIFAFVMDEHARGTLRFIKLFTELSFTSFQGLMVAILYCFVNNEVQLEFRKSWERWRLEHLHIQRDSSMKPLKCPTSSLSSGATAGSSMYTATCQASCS
T4 sequence (P43220 24-463): as above

SMILES | Emax (hGLP-1R; [3]) | EC50 (hGLP-1R; [4]) | Ki [1] | Emax (hGIPR; [5]) | EC50 (hGIPR; [4]) | EC50 (hGCGR; [4]) | EC50 (hGCGR; [6]) | Ki [2] | Emax (hGLP-1R; [5]) | EC50 (hGLP-1R; [6]) | Emax (hGIPR; [3]) | EC50 (hGIPR; [6])
CCCCCCCCCCCC(=O)N[C@@H](CCC(=O)NCCOCCOCC(=O)NCCOCCOCC(=O)NCCOCCOCC(=O)NCCCC[C@H](NC(=O)[C@H](CCCN)NC(=O)[C@H](CC(=O)O)NC(=O)[C@H](CC(C)C)NC(=O)[C@](C)(CC(C)C)NC(=O)[C@@H](NC(=O)C(C)(C)NC(=O)[C@H](Cc1ccncc1)NC(=O)[C@H](CC(=O)O)NC(=O)[C@H](CO)NC(=O)[C@@H](NC(=O)[C@](C)(Cc1ccccc1F)NC(=O)[C@@H](NC(=O)CNC(=O)[C@H](CCC(=O)O)NC(=O)C(C)(C)NC(=O)[C@@H](N)Cc1ccc(O)cc1)[C@@H](C)O)[C@@H](C)O)[C@@H](C)CC)C(=O)N[C@@H](C)C(=O)N[C@@H](CCC(N)=O)C(=O)NC(C)(C)C(=O)N[C@@H](CCC(=O)O)C(=O)N[C@@H](Cc1ccccc1)C(=O)N[C@H](C(=O)N[C@H](CCC(=O)O)C(=O)N[C@@](C)(Cc1ccc(O)cc1)C(=O)N[C@@H](CC(C)C)C(=O)N[C@H](C(=O)N[C@@H](CCCCNC(=O)COCCOCCNC(=O)COCCOCCNC(=O)COCCOCCNC(=O)CC[C@H](NC(=O)CCCCCCCCCCC)C(=O)O)C(=O)NCC(=O)NCC(=O)N1CCC[C@H]1C(=O)N[C@@H](CO)C(=O)N[C@@H](CO)C(=O)NCC(=O)N[C@@H](C)C(=O)N1CCC[C@H]1C(=O)N1CCC[C@H]1C(=O)N1CCC[C@H]1C(=O)N[C@@H](CO)C(N)=O)[C@@H](C)CC)[C@@H](C)CC)C(=O)O [Example 423] | 105% | 0.0721 nM | 0.0207 nM | 89.7% | 0.00658 nM | > 9950 nM | > 9950 nM | 0.275 nM |  |  |  | 
CCCCCCCCCCCC(=O)N[C@@H](CCC(=O)NCCOCCOCC(=O)NCCOCCOCC(=O)NCCOCCOCC(=O)NCCCC[C@H](NC(=O)[C@H](CO)NC(=O)[C@@H]1CCCN1C(=O)[C@@H]1CCCN1C(=O)[C@@H]1CCCN1C(=O)[C@H](C)NC(=O)CNC(=O)[C@H](CO)NC(=O)[C@H](CO)NC(=O)[C@@H]1CCCN1C(=O)CNC(=O)CNC(=O)[C@H](CCC(=O)O)NC(=O)[C@@H](NC(=O)[C@H](CC(C)C)NC(=O)[C@](C)(Cc1ccc(O)cc1)NC(=O)[C@@H](CCC(=O)O)NC(=O)[C@@H](NC(=O)[C@H](Cc1ccccc1)NC(=O)[C@H](CCC(=O)O)NC(=O)C(C)(C)NC(=O)[C@H](CCC(N)=O)NC(=O)[C@H](C)NC(=O)[C@H](CCCCNC(=O)COCCOCCNC(=O)COCCOCCNC(=O)COCCOCCNC(=O)CC[C@H](NC(=O)CCCCCCCCCCC)C(=O)O)NC(=O)[C@H](CCCN)NC(=O)[C@H](CC(=O)O)NC(=O)[C@H](CC(C)C)NC(=O)[C@](C)(CC(C)C)NC(=O)[C@@H](NC(=O)C(C)(C)NC(=O)[C@H](Cc1ccncc1)NC(=O)[C@H](CC(=O)O)NC(=O)[C@H](CO)NC(=O)[C@@H](NC(=O)[C@](C)(Cc1ccccc1F)NC(=O)[C@@H](NC(=O)CNC(=O)[C@H](CCC(=O)O)NC(=O)C(C)(C)NC(=O)[C@@H](N)Cc1ccc(O)cc1)[C@@H](C)O)[C@@H](C)O)[C@@H](C)CC)[C@@H](C)CC)[C@@H](C)CC)C(N)=O)C(=O)O [Example 424] |  | 0.0427 nM | 0.0206 nM | 89.5% | 0.00502 nM | > 9950 nM | > 9950 nM | 0.219 nM | 98.1% | 3.07 nM |  | 
CCCCCCCCCCCC(=O)N[C@@H](CCC(=O)NCCOCCOCC(=O)NCCOCCOCC(=O)NCCOCCOCC(=O)NCCCC[C@H](NC(=O)[C@H](CCCN)NC(=O)[C@H](CC(=O)O)NC(=O)[C@H](CC(C)C)NC(=O)[C@](C)(CC(C)C)NC(=O)[C@@H](NC(=O)C(C)(C)NC(=O)[C@H](CCCCNC(=O)COCCOCCNC(=O)COCCOCCNC(=O)COCCOCCNC(=O)CC[C@H](NC(=O)CCCCCCCCCCC)C(=O)O)NC(=O)[C@H](CC(=O)O)NC(=O)[C@H](CO)NC(=O)[C@@H](NC(=O)[C@](C)(Cc1ccccc1F)NC(=O)[C@@H](NC(=O)CNC(=O)[C@H](CCC(=O)O)NC(=O)C(C)(C)NC(=O)[C@@H](N)Cc1ccc(O)cc1)[C@@H](C)O)[C@@H](C)O)[C@@H](C)CC)C(=O)N[C@@H](C)C(=O)N[C@@H](CCC(N)=O)C(=O)NC(C)(C)C(=O)N[C@@H](CCCN)C(=O)N[C@@H](Cc1ccccc1)C(=O)N[C@H](C(=O)N[C@H](CCC(=O)O)C(=O)N[C@@](C)(Cc1ccc(O)cc1)C(=O)N[C@@H](CC(C)C)C(=O)N[C@H](C(=O)N[C@@H](CCC(=O)O)C(=O)NCC(=O)NCC(=O)N1CCC[C@H]1C(=O)N[C@@H](CO)C(=O)N[C@@H](CO)C(=O)NCC(=O)N[C@@H](C)C(=O)N1CCC[C@H]1C(=O)N1CCC[C@H]1C(=O)N1CCC[C@H]1C(=O)N[C@@H](CO)C(N)=O)[C@@H](C)CC)[C@@H](C)CC)C(=O)O [Example 432] |  | 0.0549 nM | 0.0134 nM | 96.7% | 0.00602 nM | > 9950 nM | > 9950 nM | 0.134 nM |  | 1.28 nM |  | 
CCCCCCCCCCCC(=O)N[C@@H](CCC(=O)NCCOCCOCC(=O)NCCOCCOCC(=O)NCCOCCOCC(=O)NCCCC[C@H](NC(=O)[C@H](CCCN)NC(=O)[C@H](CC(=O)O)NC(=O)[C@H](CC(C)C)NC(=O)[C@](C)(CC(C)C)NC(=O)[C@@H](NC(=O)C(C)(C)NC(=O)[C@H](Cc1ccncc1)NC(=O)[C@H](CC(=O)O)NC(=O)[C@H](CO)NC(=O)[C@@H](NC(=O)[C@](C)(Cc1ccccc1F)NC(=O)[C@@H](NC(=O)CNC(=O)[C@H](CCC(=O)O)NC(=O)C(C)(C)NC(=O)[C@@H](N)Cc1ccc(O)cc1)[C@@H](C)O)[C@@H](C)O)[C@@H](C)CC)C(=O)N[C@@H](C)C(=O)N[C@@H](CCC(N)=O)C(=O)NC(C)(C)C(=O)N[C@@H](CCCCNC(=O)COCCOCCNC(=O)COCCOCCNC(=O)COCCOCCNC(=O)CC[C@H](NC(=O)CCCCCCCCCCC)C(=O)O)C(=O)N[C@@H](Cc1ccccc1)C(=O)N[C@H](C(=O)N[C@H](CCC(=O)O)C(=O)N[C@@](C)(Cc1ccc(O)cc1)C(=O)N[C@@H](CC(C)C)C(=O)N[C@H](C(=O)N[C@@H](CCCN)C(=O)NCC(=O)NCC(=O)N1CCC[C@H]1C(=O)N[C@@H](CO)C(=O)N[C@@H](CO)C(=O)NCC(=O)N[C@@H](C)C(=O)N1CCC[C@H]1C(=O)N1CCC[C@H]1C(=O)N1CCC[C@H]1C(=O)N[C@@H](CO)C(N)=O)[C@@H](C)CC)[C@@H](C)CC)C(=O)O [Example 433] |  | 0.128 nM | 0.0175 nM | 100% | 0.00972 nM | > 9950 nM | > 9950 nM | 0.187 nM |  | 2.63 nM | 94% | 
CC[C@H](C)[C@H](NC(=O)[C@H](CC(C)C)NC(=O)[C@](C)(Cc1ccc(O)cc1)NC(=O)[C@H](CCCCNC(=O)COCCOCCNC(=O)CCCCCNC(=O)CC[C@H](NC(=O)CCCCCCCCCCCCC(=O)O)C(=O)O)NC(=O)[C@@H](NC(=O)[C@H](Cc1ccccc1)NC(=O)[C@H](CCCN)NC(=O)C(C)(C)NC(=O)[C@H](CCC(N)=O)NC(=O)[C@H](C)NC(=O)[C@H](CCC(N)=O)NC(=O)[C@H](CCCN)NC(=O)[C@H](CC(=O)O)NC(=O)[C@H](CC(C)C)NC(=O)[C@](C)(CC(C)C)NC(=O)[C@@H](NC(=O)C(C)(C)NC(=O)[C@H](Cc1ccncc1)NC(=O)[C@H](CC(=O)O)NC(=O)[C@H](CO)NC(=O)[C@@H](NC(=O)[C@](C)(Cc1ccccc1F)NC(=O)[C@@H](NC(=O)CNC(=O)[C@H](CCC(=O)O)NC(=O)C(C)(C)NC(=O)[C@@H](N)Cc1ccc(O)cc1)[C@@H](C)O)[C@@H](C)O)[C@@H](C)CC)[C@@H](C)CC)C(=O)N[C@@H](CCCCNC(=O)COCCOCCNC(=O)CCCCCNC(=O)CC[C@H](NC(=O)CCCCCCCCCCCCC(=O)O)C(=O)O)C(=O)NCC(=O)NCC(=O)N1CCC[C@H]1C(=O)N[C@@H](CO)C(=O)N[C@@H](CO)C(=O)NCC(=O)N[C@@H](C)C(=O)N1CCC[C@H]1C(=O)N1CCC[C@H]1C(=O)N1CCC[C@H]1C(=O)N[C@@H](CO)C(N)=O [Example 449] | 112% | 0.16 nM | 0.0133 nM | 92.1% | 0.0102 nM | > 9950 nM | > 9950 nM | 0.201 nM |  |  |  | 0.595 nM
